In ChEMBL document CHEMBL1139874, “New diphenylacetylenes as probes for positron emission tomographic imaging of amyloid plaques” (J Med Chem, 2007):
One block for each compound: values may come before it.

What was measured:
[1] = biological target: Amyloid-beta precursor protein (Homo sapiens, UniProt P05067); test: Displacement of [125I]IMPY from human beta amyloid plaque in brain homogenates; assay type: tissue-based
[2] = tested on: Muscle tissue; test: Biodistribution in ICR mouse muscle at 5 to 10 uCi, iv after 2 mins; assay type: ADME, organism-based; conditions: in vivo
[3] = tested on: Zone of skin; test: Biodistribution in ICR mouse skin at 5 to 10 uCi, iv after 2 mins; assay type: ADME, organism-based; conditions: in vivo
[4] = tested on: Liver; test: Biodistribution in ICR mouse liver at 5 to 10 uCi, iv after 2 mins; assay type: ADME, organism-based; conditions: in vivo
[5] = tested on: Liver; test: Biodistribution in ICR mouse liver at 5 to 10 uCi, iv after 30 mins; assay type: ADME, organism-based; conditions: in vivo, 0.5 h
[6] = tested on: Brain; test: Biodistribution in ICR mouse brain at 5 to 10 uCi, iv after 2 mins; assay type: ADME, organism-based; conditions: in vivo
[7] = tested on: Heart; test: Biodistribution in ICR mouse heart at 5 to 10 uCi, iv after 30 mins; assay type: ADME, organism-based; conditions: in vivo, 0.5 h
[8] = tested on: Spleen; test: Biodistribution in ICR mouse spleen at 5 to 10 uCi, iv after 2 hrs; assay type: ADME, organism-based; conditions: in vivo
[9] = tested on: Muscle tissue; test: Biodistribution in ICR mouse muscle at 5 to 10 uCi, iv after 1 hr; assay type: ADME, organism-based; conditions: in vivo
[10] = tested on: Heart; test: Biodistribution in ICR mouse heart at 5 to 10 uCi, iv after 1 hr; assay type: ADME, organism-based; conditions: in vivo
[11] = tested on: Kidney; test: Biodistribution in ICR mouse kidney at 5 to 10 uCi, iv after 30 mins; assay type: ADME, organism-based; conditions: in vivo, 0.5 h
[12] = tested on: Bone; test: Biodistribution in ICR mouse bone at 5 to 10 uCi, iv after 2 hrs; assay type: ADME, organism-based, Bone element; conditions: in vivo
[13] = tested on: Bone; test: Biodistribution in ICR mouse bone at 5 to 10 uCi, iv after 1 hr; assay type: ADME, organism-based, Bone element; conditions: in vivo
[14] = tested on: Lung; test: Biodistribution in ICR mouse lung at 5 to 10 uCi, iv after 2 mins; assay type: ADME, organism-based; conditions: in vivo
[15] = tested on: Lung; test: Biodistribution in ICR mouse lung at 5 to 10 uCi, iv after 1 hr; assay type: ADME, organism-based; conditions: in vivo
[16] = tested on: Muscle tissue; test: Biodistribution in ICR mouse muscle at 5 to 10 uCi, iv after 30 mins; assay type: ADME, organism-based; conditions: in vivo, 0.5 h
[17] = tested on: Brain; test: Biodistribution in ICR mouse brain at 5 to 10 uCi, iv after 1 hr; assay type: ADME, organism-based; conditions: in vivo
[18] = tested on: Heart; test: Biodistribution in ICR mouse heart at 5 to 10 uCi, iv after 2 hrs; assay type: ADME, organism-based; conditions: in vivo
[19] = tested on: Zone of skin; test: Biodistribution in ICR mouse skin at 5 to 10 uCi, iv after 30 mins; assay type: ADME, organism-based; conditions: in vivo, 0.5 h
[20] = tested on: Spleen; test: Biodistribution in ICR mouse spleen at 5 to 10 uCi, iv after 30 mins; assay type: ADME, organism-based; conditions: in vivo, 0.5 h
[21] = tested on: Bone; test: Biodistribution in ICR mouse bone at 5 to 10 uCi, iv after 30 mins; assay type: ADME, organism-based, Bone element; conditions: in vivo, 0.5 h
[22] = tested on: Heart; test: Biodistribution in ICR mouse heart at 5 to 10 uCi, iv after 2 mins; assay type: ADME, organism-based; conditions: in vivo
[23] = tested on: Kidney; test: Biodistribution in ICR mouse kidney at 5 to 10 uCi, iv after 2 mins; assay type: ADME, organism-based; conditions: in vivo
[24] = tested on: Lung; test: Biodistribution in ICR mouse lung at 5 to 10 uCi, iv after 30 mins; assay type: ADME, organism-based; conditions: in vivo, 0.5 h
[25] = tested on: Kidney; test: Biodistribution in ICR mouse kidney at 5 to 10 uCi, iv after 2 hrs; assay type: ADME, organism-based; conditions: in vivo
[26] = tested on: Zone of skin; test: Biodistribution in ICR mouse skin at 5 to 10 uCi, iv after 1 hr; assay type: ADME, organism-based; conditions: in vivo
[27] = tested on: Blood; test: Biodistribution in ICR mouse blood at 5 to 10 uCi, iv after 2 hrs; assay type: ADME, organism-based; conditions: in vivo
[28] = tested on: Liver; test: Biodistribution in ICR mouse liver at 5 to 10 uCi, iv after 2 hrs; assay type: ADME, organism-based; conditions: in vivo
[29] = Partition coefficient, log P at pH 7.4; assay type: physicochemical; conditions: octanol/water
[30] = tested on: Zone of skin; test: Biodistribution in ICR mouse skin at 5 to 10 uCi, iv after 2 hrs; assay type: ADME, organism-based; conditions: in vivo
[31] = tested on: Brain; test: Biodistribution in ICR mouse brain at 5 to 10 uCi, iv after 30 mins; assay type: ADME, organism-based; conditions: in vivo, 0.5 h
[32] = tested on: Blood; test: Biodistribution in ICR mouse blood at 5 to 10 uCi, iv after 30 mins; assay type: ADME, organism-based; conditions: in vivo, 0.5 h
[33] = tested on: Bone; test: Biodistribution in ICR mouse bone at 5 to 10 uCi, iv after 2 mins; assay type: ADME, organism-based, Bone element; conditions: in vivo
[34] = tested on: Brain; test: Biodistribution in ICR mouse brain at 5 to 10 uCi, iv after 2 hrs; assay type: ADME, organism-based; conditions: in vivo
[35] = tested on: Spleen; test: Biodistribution in ICR mouse spleen at 5 to 10 uCi, iv after 2 mins; assay type: ADME, organism-based; conditions: in vivo
[36] = tested on: Lung; test: Biodistribution in ICR mouse lung at 5 to 10 uCi, iv after 2 hrs; assay type: ADME, organism-based; conditions: in vivo
[37] = tested on: Spleen; test: Biodistribution in ICR mouse spleen at 5 to 10 uCi, iv after 1 hr; assay type: ADME, organism-based; conditions: in vivo
[38] = tested on: Kidney; test: Biodistribution in ICR mouse kidney at 5 to 10 uCi, iv after 1 hr; assay type: ADME, organism-based; conditions: in vivo
[39] = tested on: Blood; test: Biodistribution in ICR mouse blood at 5 to 10 uCi, iv after 1 hr; assay type: ADME, organism-based; conditions: in vivo
[40] = tested on: Liver; test: Biodistribution in ICR mouse liver at 5 to 10 uCi, iv after 1 hr; assay type: ADME, organism-based; conditions: in vivo
[41] = tested on: Blood; test: Biodistribution in ICR mouse blood at 5 to 10 uCi, iv after 2 mins; assay type: ADME, organism-based; conditions: in vivo
[42] = tested on: Muscle tissue; test: Biodistribution in ICR mouse muscle at 5 to 10 uCi, iv after 2 hrs; assay type: ADME, organism-based; conditions: in vivo

Chain of Amyloid-beta precursor protein (P05067 whole entry): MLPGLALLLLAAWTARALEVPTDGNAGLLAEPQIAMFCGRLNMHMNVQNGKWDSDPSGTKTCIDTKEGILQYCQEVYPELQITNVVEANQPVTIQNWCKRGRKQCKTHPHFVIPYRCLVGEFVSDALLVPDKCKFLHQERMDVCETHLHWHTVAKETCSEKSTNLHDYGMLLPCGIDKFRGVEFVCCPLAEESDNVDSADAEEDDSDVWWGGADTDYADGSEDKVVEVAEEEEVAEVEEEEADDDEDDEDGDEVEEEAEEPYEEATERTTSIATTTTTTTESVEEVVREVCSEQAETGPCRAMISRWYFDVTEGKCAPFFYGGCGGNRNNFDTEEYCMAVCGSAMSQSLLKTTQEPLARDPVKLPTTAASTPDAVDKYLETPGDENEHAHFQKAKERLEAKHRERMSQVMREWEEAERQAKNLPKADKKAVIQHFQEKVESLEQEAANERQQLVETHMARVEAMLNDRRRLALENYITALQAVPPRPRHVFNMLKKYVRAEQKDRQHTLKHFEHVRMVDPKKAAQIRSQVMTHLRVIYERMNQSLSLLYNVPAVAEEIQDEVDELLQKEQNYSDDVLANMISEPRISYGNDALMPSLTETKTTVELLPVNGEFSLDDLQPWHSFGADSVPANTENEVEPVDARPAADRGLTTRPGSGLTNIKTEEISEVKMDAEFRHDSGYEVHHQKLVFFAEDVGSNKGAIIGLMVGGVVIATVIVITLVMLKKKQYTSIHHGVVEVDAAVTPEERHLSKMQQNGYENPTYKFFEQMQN

Ki [1]: 175 nM
Structure (SMILES): C(#Cc1ccccc1)c1ccccc1 [DIPHENYLACETYLENE]

Ki [1]: 106 nM
Structure (SMILES): Nc1ccc(C#Cc2ccc(O)cc2)cc1

Drug uptake [2]: 1.97 % ID/g | Drug uptake [3]: 1.24 % ID/g | Drug uptake [4]: 25.8 % ID/g | Drug uptake [5]: 14.8 % ID/g | Drug uptake [6]: 4.55 % ID/g | Drug uptake [7]: 1.4 % ID/g | Drug uptake [8]: 1.02 % ID/g | Drug uptake [9]: 0.62 % ID/g | Drug uptake [10]: 1.24 % ID/g | Drug uptake [11]: 2.9 % ID/g | Drug uptake [12]: 0.82 % ID/g | Drug uptake [13]: 0.65 % ID/g | Drug uptake [14]: 4.64 % ID/g | Drug uptake [15]: 2.04 % ID/g | Drug uptake [16]: 0.61 % ID/g | Drug uptake [17]: 0.37 % ID/g | Drug uptake [18]: 0.96 % ID/g | Drug uptake [19]: 1.4 % ID/g | Drug uptake [20]: 1.22 % ID/g | Drug uptake [21]: 0.66 % ID/g | Drug uptake [22]: 4.21 % ID/g | Drug uptake [23]: 4.74 % ID/g | Drug uptake [24]: 2.1 % ID/g | Drug uptake [25]: 1.8 % ID/g | Drug uptake [26]: 0.95 % ID/g | Drug uptake [27]: 3.17 % ID/g | Drug uptake [28]: 9.14 % ID/g | logD [29]: 3.07 | Drug uptake [30]: 0.6 % ID/g | Drug uptake [31]: 0.42 % ID/g | Drug uptake [32]: 3.28 % ID/g | Drug uptake [33]: 1.5 % ID/g | Drug uptake [34]: 0.38 % ID/g | Drug uptake [35]: 2.69 % ID/g | Drug uptake [36]: 1.72 % ID/g | Drug uptake [37]: 0.95 % ID/g | Drug uptake [38]: 2.4 % ID/g | Drug uptake [39]: 3.22 % ID/g | Drug uptake [40]: 10.2 % ID/g | Drug uptake [41]: 3.28 % ID/g | Drug uptake [42]: 0.39 % ID/g
Structure (SMILES): CNc1ccc(C#Cc2ccc(OCCOCCOCC[18F])cc2)cc1

Ki [1]: 1.9 nM
Structure (SMILES): CNc1ccc(C#Cc2ccc(OCCOCCOCCF)cc2)cc1

Ki [1]: 16.5 nM
Structure (SMILES): Oc1ccc(C#Cc2ccc(OCCOCCOCCF)cc2)cc1

Ki [1]: 67.6 nM
Structure (SMILES): Nc1ccc(C#Cc2ccc(OCCOCCOCCO)cc2)cc1

Ki [1]: 21.5 nM
Structure (SMILES): Nc1ccc(C#Cc2ccc(OCCOCCOCCF)cc2)cc1

Ki [1]: 4.5 nM
Structure (SMILES): CNc1ccc(C#Cc2ccc(OCCOCCOCCO)cc2)cc1

Ki [1]: 12 nM
Structure (SMILES): Nc1ccc(C#Cc2ccc(OCCOCCF)cc2)cc1

Ki [1]: 3.1 nM
Structure (SMILES): CNc1ccc(C#Cc2ccc(OCCOCCO)cc2)cc1

Drug uptake [2]: 0.79 % ID/g | Drug uptake [3]: 0.94 % ID/g | Drug uptake [4]: 29.6 % ID/g | Drug uptake [5]: 18.3 % ID/g | Drug uptake [6]: 4.42 % ID/g | Drug uptake [7]: 2.84 % ID/g | Drug uptake [8]: 3.3 % ID/g | Drug uptake [9]: 1.38 % ID/g | Drug uptake [10]: 3.54 % ID/g | Drug uptake [11]: 4.78 % ID/g | Drug uptake [12]: 2.07 % ID/g | Drug uptake [13]: 1.92 % ID/g | Drug uptake [14]: 6.57 % ID/g | Drug uptake [15]: 6.01 % ID/g | Drug uptake [16]: 1.26 % ID/g | Drug uptake [17]: 0.99 % ID/g | Drug uptake [18]: 2.6 % ID/g | Drug uptake [19]: 2.11 % ID/g | Drug uptake [20]: 3.6 % ID/g | Drug uptake [21]: 1.46 % ID/g | Drug uptake [22]: 4.73 % ID/g | Drug uptake [23]: 5.55 % ID/g | Drug uptake [24]: 4.77 % ID/g | Drug uptake [25]: 5.55 % ID/g | Drug uptake [26]: 2.55 % ID/g | Drug uptake [27]: 7.84 % ID/g | Drug uptake [28]: 11.7 % ID/g | logD [29]: 3.48 | Drug uptake [30]: 2.04 % ID/g | Drug uptake [31]: 1.03 % ID/g | Drug uptake [32]: 7.9 % ID/g | Drug uptake [33]: 1.54 % ID/g | Drug uptake [34]: 0.82 % ID/g | Drug uptake [35]: 3.74 % ID/g | Drug uptake [36]: 4.67 % ID/g | Drug uptake [37]: 3.78 % ID/g | Drug uptake [38]: 6.17 % ID/g | Drug uptake [39]: 10.3 % ID/g | Drug uptake [40]: 15.6 % ID/g | Drug uptake [41]: 7.89 % ID/g | Drug uptake [42]: 1.26 % ID/g
Structure (SMILES): CNc1ccc(C#Cc2ccc(OCCOCC[18F])cc2)cc1
